The text below walks through data of patent US10370378B2, “Treatment of sleep disorders” (Evotec International GmbH, priority 2007, dated 2019).

Values joined by “and” are separate entries in the source; they are usually repeats but may differ in a detail not shown here. Equal values may be shown once.

For data set [1] the following is noted: elderly; cited from earlier work.
Data set [2] addresses T1, α1β2γ2 GABAA receptors (Rattus norvegicus, UniProt P18508+P62813).
T1 construct: expressed in transfected cells; host or cells: Xenopus laevis oocytes, cRNA microinjection
Description: Stimulation of currents elicited by GABA (EC3-5), two-electrode voltage clamp, receptors expressed in Xenopus oocytes. Type of data set: cell-based. An excerpt:
(§1) 7-Chloro-3-(5-dimethylaminomethyl-[1,2,4]oxadiazol-3-yl)-5-methyl-4,5-dihydro-imidazol[1,5,-a][1,4]benzodiazepine-6-one was used to test the effects of the compound of formula (II): […]
(§2) Similar procedures were chosen as for the investigation of other GABAA receptor subunit specific substances (e.g., Baur et al., 2005; Mol. Pharmacol. 68, 787-792).
(§3) Lobes of the ovary containing the follicles were obtained by surgical procedures from female Xenopus laevis. Follicles were singled out using a platinum loop. Fifty nL of cRNA solution at a ratio of αx:β2:γ2 of 1:1:5 (3.3-10 nM αx (x=1, 2, 3, 5); 3.3-10 nM β2; 16.7-50 nM γ2) (Boileau et al., 2002; Neuropharmacology 43, 695-700) were microinjected into Xenopus follicles. Several hours after microinjection the follicles were freed of follicular layers and adhering connective tissue by a collagenase/hypertonic shock procedure (Sigel, 1987; J. Physiol. (Land) 386, 73-90). Oocytes were kept at constant 18° C. until measurement (1-4 days) in a modified Barth solution (88 mM NaCl, 1 mM KCl, 2.4 mM NaHCO3, 10 mM Hepes-NaOH (pH 7.5), 0.82 mM MgSO4×7H2O, 0.34 mM Ca(NO3)2×4H2O, 0.41 mM CaCl2×2H2O, 100 U Penicillin/mL, 100 μg Streptomycin/mL, sterile filtered).
Currents were measured using a home-built amplifier in combination with a xy-recorder or were digitized using a MacLab/200 (AD Instruments) and stored on a computer. Xenopus oocytes were voltage clamped using the two-electrode voltage clamp technique (electrode resistance about 0.8 MΩ) at −80 mV. The medium contained 90 mM NaCl, 1 mM KCl, 1 mM MgCl2, 1 mM CaCl2, 10 mM Na-Hepes (pH 7.4) and 0.5% DMSO.
GABA was applied for 20-50 seconds without or in combination with other drugs and a washout period of 4 minutes was allowed to ensure full recovery from desensitization, which was experimentally determined. The perfusion solution (6 mL/min) was applied through a glass capillary with an inner diameter of 1.35 mm, the mouth of which was placed about 0.4 mm from the surface of the oocyte. The rate of solution change under our conditions has been estimated 70% within less than 0.5 s (Sigel et al., 1990; Neuron 5, 703-711). The entire perfusion system and the assay chamber were cleaned between drug applications by washing with DMSO.
Data is given as mean±SD, except in the figures where data is shown for clarity as mean±SEM. Current stimulation was calculated as follows: stimulation (%)=((I(GABA+modulator)−I(GABA))/I(GABA))×100%, where I is the current amplitude. Where indicated, the stimulation was standardized to the stimulation by 1 μM diazepam (100%). To obtain FIGS. 1-4, values for current stimulation obtained at a given concentration of modulator at a given subunit combination were averaged. The data points were fitted with the equation stimulation=efficacy/(1+(potency/concentration of modulator)). The values given in the Tables (Summary) are obtained by fitting individual curves and subsequently averaging efficacy and potency. […]
GABA was then applied in combination with various concentrations of the compound of formula (II) between 0.3 nM and 3,000 nM to produce a cumulative concentration response curve. […] In each batch of oocytes the stimulation by 1 μM diazepam was determined in five oocytes, extent of stimulation averaged and defined as 100%. Where indicated, stimulation by the compound of formula (II) in each batch of oocytes was expressed as a percentage of this value in the corresponding batch. […]
On the technique in general: In two-electrode clamp one electrode senses voltage and the other passes current.

Data set [3] has as its system GABAA receptors. Conditions: 20 mg, PET, in man; cited from earlier work.
The target in data set [4] is T2, α5β2γ2 GABAA receptors (Rattus norvegicus, UniProt P18508+P19969).
T2 construct: expressed in transfected cells; host or cells: Xenopus laevis oocytes, cRNA microinjection
T2 sequence (P19969 32-464 limits assumed): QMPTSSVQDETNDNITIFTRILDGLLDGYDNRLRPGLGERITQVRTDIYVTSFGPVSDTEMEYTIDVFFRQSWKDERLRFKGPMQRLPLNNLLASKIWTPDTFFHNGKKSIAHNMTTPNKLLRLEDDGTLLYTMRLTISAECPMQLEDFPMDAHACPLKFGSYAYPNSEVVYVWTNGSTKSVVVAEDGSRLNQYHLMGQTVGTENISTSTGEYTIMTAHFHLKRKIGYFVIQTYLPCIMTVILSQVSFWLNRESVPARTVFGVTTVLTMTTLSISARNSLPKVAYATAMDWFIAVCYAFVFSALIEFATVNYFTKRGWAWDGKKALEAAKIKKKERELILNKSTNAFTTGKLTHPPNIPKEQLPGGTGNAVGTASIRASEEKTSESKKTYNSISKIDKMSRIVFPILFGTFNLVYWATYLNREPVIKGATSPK
T2 sequence (P63138 25-474 partner limits assumed): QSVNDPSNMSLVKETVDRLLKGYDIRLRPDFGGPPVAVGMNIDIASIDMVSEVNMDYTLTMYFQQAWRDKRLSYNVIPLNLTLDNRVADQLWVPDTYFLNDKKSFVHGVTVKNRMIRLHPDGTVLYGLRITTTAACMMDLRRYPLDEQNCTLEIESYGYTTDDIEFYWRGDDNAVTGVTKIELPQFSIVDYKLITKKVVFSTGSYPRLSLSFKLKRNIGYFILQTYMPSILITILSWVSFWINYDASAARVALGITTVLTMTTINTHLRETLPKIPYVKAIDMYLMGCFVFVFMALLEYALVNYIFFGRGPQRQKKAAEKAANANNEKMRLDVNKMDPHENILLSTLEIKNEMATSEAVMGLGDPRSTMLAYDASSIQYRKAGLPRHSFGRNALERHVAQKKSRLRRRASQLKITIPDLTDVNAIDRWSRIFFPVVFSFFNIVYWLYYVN
T2 sequence (P18508 39-466): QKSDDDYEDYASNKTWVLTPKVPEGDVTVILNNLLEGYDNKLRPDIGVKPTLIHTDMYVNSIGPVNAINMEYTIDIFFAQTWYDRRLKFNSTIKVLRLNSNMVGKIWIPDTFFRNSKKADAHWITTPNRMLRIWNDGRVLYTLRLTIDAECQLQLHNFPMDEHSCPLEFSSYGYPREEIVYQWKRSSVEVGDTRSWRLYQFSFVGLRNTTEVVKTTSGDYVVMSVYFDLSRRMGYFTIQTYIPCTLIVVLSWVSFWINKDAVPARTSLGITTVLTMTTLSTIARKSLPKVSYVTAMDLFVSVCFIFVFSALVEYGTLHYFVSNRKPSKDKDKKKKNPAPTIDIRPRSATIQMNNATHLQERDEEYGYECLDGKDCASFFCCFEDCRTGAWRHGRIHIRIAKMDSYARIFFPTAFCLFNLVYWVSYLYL
Description: Stimulation of currents elicited by GABA (EC3-5), two-electrode voltage clamp, receptors expressed in Xenopus oocytes. The note with it: 1 μM; different batches of oocytes, n=5 each. In kind it is cell-based.
Description: as §1, §2, §3
(§4) Currents were measured using a home-built amplifier in combination with a xy-recorder or were digitized using a MacLab/200 (AD Instruments) and stored on a computer. Xenopus oocytes were voltage clamped using the two-electrode voltage clamp technique (electrode resistance about 0.8 MΩ) at −80 mV. […]
(§5) GABA was applied for 20-50 seconds without or in combination with other drugs and a washout period of 4 minutes was allowed to ensure full recovery from desensitization, which was experimentally determined. […]
(§6) Data is given as mean±SD, except in the figures where data is shown for clarity as mean±SEM. Current stimulation was calculated as follows: stimulation (%)=((I(GABA+modulator)−I(GABA))/I(GABA))×100%, where I is the current amplitude. […]
(§7) Current stimulation by diazepam was determined in each batch of oocytes as follows. […]

Data set [5] addresses T3, α3β2γ2 GABAA receptors (Rattus norvegicus, UniProt P18508+P20236).
T3 construct: expressed in transfected cells; host or cells: Xenopus laevis oocytes, cRNA microinjection
The data set is described as above. In kind it is cell-based. The note with it: 1 μM; different batches of oocytes, n=5 each.
Description: as §1, §2, §3, §4, §5, §6, §7

The target of data set [6] is T4, α2β2γ2 GABAA receptors (Rattus norvegicus, UniProt P18508+P23576).
T4 construct: expressed in transfected cells; host or cells: Xenopus laevis oocytes, cRNA microinjection
T4 sequence (P23576 29-451): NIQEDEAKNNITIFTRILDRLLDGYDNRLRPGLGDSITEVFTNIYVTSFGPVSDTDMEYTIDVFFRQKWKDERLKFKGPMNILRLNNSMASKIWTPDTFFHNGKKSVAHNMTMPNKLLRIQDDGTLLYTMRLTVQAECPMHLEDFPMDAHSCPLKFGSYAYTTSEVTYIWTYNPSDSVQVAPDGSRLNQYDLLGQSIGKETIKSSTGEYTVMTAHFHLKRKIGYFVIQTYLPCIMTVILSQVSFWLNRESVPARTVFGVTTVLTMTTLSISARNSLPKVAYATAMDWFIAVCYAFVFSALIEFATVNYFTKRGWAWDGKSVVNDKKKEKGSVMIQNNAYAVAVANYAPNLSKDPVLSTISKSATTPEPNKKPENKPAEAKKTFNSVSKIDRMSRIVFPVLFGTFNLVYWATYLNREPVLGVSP
T4 sequence (P63138 25-474 partner limits assumed): as the sequence (P63138 25-474 partner limits assumed) above
T4 sequence (P18508 39-466): as the sequence (P18508 39-466) above
The data set is described as above. Type of data set: cell-based. The note with it: 1 μM; different batches of oocytes, n=5 each.
Description: as §1, §2, §3, §4, §5, §6, §7

T1 sequence (P62813 28-455): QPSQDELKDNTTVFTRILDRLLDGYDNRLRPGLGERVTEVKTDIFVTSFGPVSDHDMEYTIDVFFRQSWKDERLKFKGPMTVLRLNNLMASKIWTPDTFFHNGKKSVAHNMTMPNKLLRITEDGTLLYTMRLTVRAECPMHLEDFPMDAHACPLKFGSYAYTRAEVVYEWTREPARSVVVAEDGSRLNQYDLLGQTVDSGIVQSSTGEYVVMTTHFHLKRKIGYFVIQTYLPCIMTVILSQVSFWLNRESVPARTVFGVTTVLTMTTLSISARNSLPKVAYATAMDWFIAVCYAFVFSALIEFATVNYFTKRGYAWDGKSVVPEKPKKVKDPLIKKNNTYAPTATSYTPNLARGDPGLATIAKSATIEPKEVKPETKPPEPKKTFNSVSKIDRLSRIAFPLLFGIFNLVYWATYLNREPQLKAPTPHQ
T1 sequence (P63138 25-474 partner limits assumed): as the sequence (P63138 25-474 partner limits assumed) above
T1 sequence (P18508 39-466): as the sequence (P18508 39-466) above
T3 sequence (P20236 29-493): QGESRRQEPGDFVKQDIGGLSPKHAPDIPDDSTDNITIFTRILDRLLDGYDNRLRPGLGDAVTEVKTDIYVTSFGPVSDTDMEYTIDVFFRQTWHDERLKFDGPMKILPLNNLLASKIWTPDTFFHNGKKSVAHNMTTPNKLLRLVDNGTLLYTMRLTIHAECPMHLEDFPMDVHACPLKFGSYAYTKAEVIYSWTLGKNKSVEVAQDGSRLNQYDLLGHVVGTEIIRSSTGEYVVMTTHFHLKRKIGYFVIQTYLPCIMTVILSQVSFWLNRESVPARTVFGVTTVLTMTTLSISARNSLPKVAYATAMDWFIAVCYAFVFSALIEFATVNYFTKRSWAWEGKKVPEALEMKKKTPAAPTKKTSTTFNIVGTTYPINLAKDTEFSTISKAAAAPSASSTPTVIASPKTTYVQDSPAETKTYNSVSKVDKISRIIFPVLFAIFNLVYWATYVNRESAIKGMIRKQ
T3 sequence (P63138 25-474 partner limits assumed): as the sequence (P63138 25-474 partner limits assumed) above
T3 sequence (P18508 39-466): as the sequence (P18508 39-466) above

Regarding `CN1CCN(C(=O)O[C@H]2c3nccnc3C(=O)N2c2ccc(Cl)cn2)CC1` [eszopiclone], in data set [1], the half-life (as a rule, the time needed for the level to fall by half in the phase considered) is 9 h.
With `Cc1ccc(-c2nc3ccc(C)cn3c2CC(=O)N(C)C)cc1` [zolpidem], the “Receptor subtype affinity in comparison to α2β2γ2, α3β2γ2 and α5β2γ2” value in data set [2] is “higher affinity at α1β2γ2 GABAA receptors”. For the same compound, in data set [2] (GABAA receptor benzodiazepine site), the “Intrinsic activity / type of allosteric modulation” value was “full agonist”. Besides, in data set [3], the receptor occupancy entry was “about 20%”.
As for `CN1C(=O)CN=C(c2ccccc2)c2cc(Cl)ccc21` [diazepam], the Current stimulation in data set [2] (1 μM, different batches of oocytes, n=5 each) was 223±28% and 178±20%; in data set [4] it was 237±97% and 160±4%; in data set [5] it was 417±85% and 417±144%; in data set [6], 264±61% and 280±71% and 318±62%.
